Data: US6562378B1, “Nutritional supplement for adolescents” (TSAR Health Private Ltd., priority 2002, dated 2003)
Marks after values point to notes of the source that are not given here.

Assays:
Format in all cases: in vivo, human
Antibody response = experiment: Zinc dose response: antibody response; settings: adolescents
Method: (§1) The basic concept underlying the assessment of the most optimum nutrient amounts for a given age group uses the principle of “dose-response curves”. At least four groups of individuals were provided with various amounts of a given nutrient and their immune responses were measured using established and accepted techniques. The amount of a nutrient that gave the best response was considered the optimum amount. Dose response curves were determined for all vitamins and trace elements considered essential for human health, particularly immunity.
(§2) The ratio of radioactivity in the test samples divided by radioactivity in control samples gave the “stimulation response” shown in FIGS. 1 and 2.

Thymulin activity = experiment: Zinc dose response: thymulin activity; settings: adolescents
Method: as §1, §2

blood lymphocytes = experiment: Zinc dose response: lymphocyte response to PHA (thymidine uptake, stimulation index); settings: 13-18 year old adolescents, median (standard deviation)
Method: as §1
Data for the dose response curve for zinc in a group of 13-18 year old adolescents is shown in FIGS. 1 and 2, with the total amount of zinc taken is shown for each group. To determine the magnitude of immune response, an aliquot of blood was withdrawn from each subject in the study, blood lymphocytes were separated, washed and mixed with the mitogen phytohemagglutinin (PHA) in previously determined optimum amount. The optimum amount of PHA used in the experiments was predetermined by a set of dose response curves using lymphocytes of a healthy donor and four different concentrations of PHA. After culture in a sterile environment for 72 hours, the cells were washed and mixed with radioactive thymidine. The same steps were undertaken in a control sample in which only the culture medium was used, not PHA. The cells were washed and radioactivity determined.
as §2

Interleukin-2 = experiment: Zinc dose response: interleukin-2; settings: adolescents, median (standard deviation)
Method: as §1, §2

[1] = supplemental zinc 11 mg/day plus 7 mg in diet
[2] = supplemental zinc 28 mg/day plus 7 mg in diet
[3] = supplemental zinc 55 mg/day plus 7 mg in diet

## [Zn] [zinc]
Antibody response; [1]
  Antibody response (median reciprocal titre): 254
Antibody response; [2]
  Antibody response (median reciprocal titre): 136
Antibody response; [3]
  Antibody response (median reciprocal titre): 97
Thymulin activity; [1]
  Thymulin activity (median reciprocal titer): 114*
Thymulin activity; [2]
  Thymulin activity (median reciprocal titer): 123*
Thymulin activity; [3]
  Thymulin activity (median reciprocal titer): 106*
Blood lymphocytes; [1]
  Lymphocyte Response to PHA (stimulation index): 77 (8)
Blood lymphocytes; [2]
  Lymphocyte Response to PHA (stimulation index): 51 (6)
Blood lymphocytes; [3]
  Lymphocyte Response to PHA (stimulation index): 40 (7)
Interleukin-2; [1]
  Interleukin-2: 17 (1.4) units/ml
Interleukin-2; [2]
  Interleukin-2: 11 (1.5) units/ml
Interleukin-2; [3]
  Interleukin-2: 9 (1.1) units/ml
